The source of these data is US8722332B2, “Macrocyclic lactone resistance marker for dirofilaria immitis” (priority 2010, dated 2014).

“Also recorded” adds a separate entry of the source. Where two headings read alike, the source gives them in different places. Marks after values point to notes of the source that are not given here.

One series deals with mf. Particulars: in vivo; cited from earlier work.
In a further series the test system is D. immitis mf. On the set-up: species or system Dirofilaria immitis. Particulars: in vivo.
The subject of the next series is adult heartworms. The note with it: dog, in vivo.
Series [1] concerns adult heartworms (D. immitis antigen). On the set-up: species or system Dirofilaria immitis. Particulars: in vivo; dihydrochloride.

As for `CC[C@H](C)[C@H]1O[C@]2(CC[C@@H]1C)C[C@@H]1C[C@@H](C/C=C(\C)[C@@H](O[C@H]3C[C@H](OC)[C@@H](O[C@H]4C[C@H](OC)[C@@H](O)[C@H](C)O4)[C@H](C)O3)[C@@H](C)/C=C/C=C3\CO[C@@H]4[C@H](O)C(C)=C[C@@H](C(=O)O1)[C@]34O)O2` [IVM, ivermectin], the “dose previously shown to kill mf” value in the series on mf is 50 µg/kg. Moreover, in the series with D. immitis mf (po), the “Microfilariae concentration in blood” value is given as “≧100^b mf/ml” and the “Microfilariae in blood (Knott's test)” value is reported as “remained continually microfilaremic; also recorded: still microfilaremic; also recorded: Knott's test +ve^a”.
With `Cl.Cl.NCCS[As](SCCN)c1ccc(Nc2nc(N)nc(N)n2)cc1` [melarsomine, melarsomine dihydrochloride], the “clinical signs after adulticide” value with adult heartworms is “transitory signs consistent with death of adult heartworms”. In series [1], the “Antigen test DiroChek result (+ve or −ve)” value is “still negative; also recorded: DiroChek −ve^c”, the “Antigen test PetChek result (+ve or −ve)” value is given as “negative; also recorded: PetChek −ve^a” and the “Antigen test SNAP result (+ve or −ve)” value was “still negative; also recorded: SNAP −ve^a”.
For milbemycin oxime [MO], in the series on mf, the “dose previously shown to kill mf” value is 500 µg/kg. Also, the “Microfilariae in blood (Knott's test)” value in the series with D. immitis mf is “remained continually microfilaremic; also recorded: mf were still present; also recorded: Knott's test +ve^a; also recorded: Knott's test +ve^c”.
